# Experimental data published in PubChem BioAssay (NCI).
#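 Results reflect a 48-hour exposure of cells in 96-well plates to compound at five concentrations. TGI denotes the concentration required for complete inhibition of growth.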
# What was measured:
# Experiment in all cases: NCI anticancer screen, dose series, 48 h
# [1] = system: HT29 colon
# [2] = system: HCT-116 colon
# [3] = system: SF-539 CNS
# [4] = system: NCI-H226 lung
# [5] = system: HS 578T breast
# [6] = system: TK-10 renal
# [7] = system: HCT-15 colon
# [8] = system: SF-268 CNS
# [9] = system: HOP-92 NSCLC
# [10] = system: A549 NSCLC
# [11] = system: OVCAR-8 ovarian
# [12] = system: ACHN renal
# [13] = system: NCI-H522 lung
# [14] = system: MCF7 breast
# [15] = system: SW-620 colon
# [16] = system: SR leukemia
# [17] = system: DU-145 prostate
# [18] = system: OVCAR-3 ovarian
# [19] = system: MDA-MB-435
# [20] = system: SK-MEL-28 melanoma
# [21] = system: KM12 colon
# [22] = system: EKVX NSCLC
# [23] = system: LOX IMVI melanoma
# [24] = system: M14 melanoma
# [25] = system: SNB-19 CNS
# [26] = system: BT-549 breast
# [27] = system: UACC-257 melanoma
# [28] = system: NCI-H460 lung
# [29] = system: RXF 393 renal
# [30] = system: OVCAR-5 ovarian
# [31] = system: U251 CNS
# [32] = system: HOP-62 NSCLC
# [33] = system: SF-295 CNS
# [34] = system: SN12C renal
# [35] = system: COLO 205 colon
# [36] = system: MOLT-4 leukemia
# [37] = system: OVCAR-4 ovarian
# [38] = system: T-47D breast
# [39] = system: SK-OV-3 ovarian
# [40] = system: CAKI-1 renal
# [41] = system: PC-3 prostate
# [42] = system: IGROV1 ovarian
# [43] = system: MDA-MB-231 breast
# [44] = system: 786-0 renal
# [45] = system: A498 renal
# [46] = system: HCC-2998 colon
# [47] = system: K-562 leukemia
# [48] = system: NCI-H23 lung
# [49] = system: NCI/ADR-RES ovarian
# [50] = system: UACC-62 melanoma
# [51] = system: MDA-N
# [52] = system: MALME-3M melanoma
# [53] = system: UO-31 renal
# [54] = system: SK-MEL-5 melanoma
# [55] = system: RPMI-8226 leukemia
# [56] = system: SK-MEL-2 melanoma
# [57] = system: SNB-75 CNS
# [58] = system: HL-60(TB) leukemia
# [59] = system: CCRF-CEM leukemia
compound,measurement,setting,value
c1ccc2c(c1)Sc1ccccc1N2CCCN1c2ccccc2Sc2ccccc21,TGI,[1],> 100 µM
same,TGI,[2],> 100 µM
same,TGI,[3],> 100 µM
same,TGI,[4],> 100 µM
same,TGI,[5],> 100 µM
same,TGI,[6],> 100 µM
same,TGI,[7],> 100 µM
same,TGI,[8],> 100 µM
same,TGI,[9],> 100 µM
same,TGI,[10],> 100 µM
same,TGI,[11],> 100 µM
same,TGI,[12],> 100 µM
same,TGI,[13],> 100 µM
same,TGI,[14],> 100 µM
same,TGI,[15],> 100 µM
same,TGI,[16],> 100 µM
same,TGI,[17],> 100 µM
same,TGI,[18],> 100 µM
same,TGI,[19],> 100 µM
same,TGI,[20],> 100 µM
same,TGI,[21],> 100 µM
same,TGI,[22],> 100 µM
same,TGI,[23],> 100 µM
same,TGI,[24],> 100 µM
same,TGI,[25],> 100 µM
same,TGI,[26],> 100 µM
same,TGI,[27],> 100 µM
same,TGI,[28],> 100 µM
same,TGI,[29],> 100 µM
same,TGI,[30],> 100 µM
same,TGI,[31],> 100 µM
same,TGI,[32],> 100 µM
same,TGI,[33],> 100 µM
same,TGI,[34],> 100 µM
same,TGI,[35],> 100 µM
same,TGI,[36],> 100 µM
same,TGI,[37],> 100 µM
same,TGI,[38],> 100 µM
same,TGI,[39],> 100 µM
same,TGI,[40],> 100 µM
same,TGI,[41],> 100 µM
same,TGI,[42],> 100 µM
same,TGI,[43],> 100 µM
same,TGI,[44],45.2 µM
same,TGI,[45],> 100 µM
same,TGI,[46],> 100 µM
same,TGI,[47],> 100 µM
same,TGI,[48],> 100 µM
same,TGI,[49],> 100 µM
same,TGI,[50],> 100 µM
same,TGI,[51],> 100 µM
same,TGI,[52],> 100 µM
same,TGI,[53],> 100 µM
same,TGI,[54],> 100 µM
COc1ccc(-c2cc(-c3ccccc3)c3c(n2)-c2ccccc2NC(=O)C3)cc1,TGI,[55],> 100 µM
same,TGI,[1],> 100 µM
same,TGI,[2],> 100 µM
same,TGI,[3],> 100 µM
same,TGI,[4],> 100 µM
same,TGI,[5],30.5 µM
same,TGI,[6],> 100 µM
same,TGI,[7],> 100 µM
same,TGI,[8],> 100 µM
same,TGI,[9],> 100 µM
same,TGI,[10],> 100 µM
same,TGI,[11],30.1 µM
same,TGI,[12],> 100 µM
same,TGI,[14],> 100 µM
same,TGI,[15],> 100 µM
same,TGI,[17],> 100 µM
same,TGI,[18],> 100 µM
same,TGI,[19],> 100 µM
same,TGI,[20],> 100 µM
same,TGI,[21],> 100 µM
same,TGI,[22],> 100 µM
same,TGI,[23],> 100 µM
same,TGI,[24],> 100 µM
same,TGI,[25],> 100 µM
same,TGI,[26],> 100 µM
same,TGI,[27],> 100 µM
same,TGI,[28],> 100 µM
same,TGI,[29],> 100 µM
same,TGI,[30],> 100 µM
same,TGI,[31],> 100 µM
same,TGI,[32],> 100 µM
same,TGI,[56],> 100 µM
same,TGI,[33],> 100 µM
same,TGI,[34],> 100 µM
same,TGI,[35],> 100 µM
same,TGI,[37],> 100 µM
same,TGI,[38],> 100 µM
same,TGI,[57],37.8 µM
same,TGI,[39],> 100 µM
same,TGI,[40],> 100 µM
same,TGI,[41],> 100 µM
same,TGI,[42],52.6 µM
same,TGI,[43],> 100 µM
same,TGI,[44],> 100 µM
same,TGI,[45],> 100 µM
same,TGI,[46],> 100 µM
same,TGI,[47],8.64 µM
same,TGI,[48],> 100 µM
same,TGI,[49],> 100 µM
same,TGI,[58],> 100 µM
same,TGI,[50],> 100 µM
same,TGI,[51],> 100 µM
same,TGI,[52],94.1 µM
same,TGI,[53],> 100 µM
same,TGI,[54],> 100 µM
COC(=O)C1=C(C(=O)OC)C2(c3ccccc3)c3ccccc3C(=O)C1N2C1CCCCC1 (stereo not drawn),TGI,[55],40.6 µM
same,TGI,[1],> 100 µM
same,TGI,[2],> 100 µM
same,TGI,[3],> 100 µM
same,TGI,[4],> 100 µM
same,TGI,[5],> 100 µM
same,TGI,[6],> 100 µM
same,TGI,[7],> 100 µM
same,TGI,[8],> 100 µM
same,TGI,[9],> 100 µM
same,TGI,[10],> 100 µM
same,TGI,[11],> 100 µM
same,TGI,[12],> 100 µM
same,TGI,[13],> 100 µM
same,TGI,[14],> 100 µM
same,TGI,[15],> 100 µM
same,TGI,[17],> 100 µM
same,TGI,[59],> 100 µM
same,TGI,[18],> 100 µM
same,TGI,[19],> 100 µM
same,TGI,[20],> 100 µM
same,TGI,[21],> 100 µM
same,TGI,[22],> 100 µM
same,TGI,[23],> 100 µM
same,TGI,[24],> 100 µM
same,TGI,[25],> 100 µM
same,TGI,[26],> 100 µM
same,TGI,[27],> 100 µM
same,TGI,[28],> 100 µM
same,TGI,[29],> 89 µM
same,TGI,[30],> 100 µM
same,TGI,[31],> 100 µM
same,TGI,[32],> 100 µM
same,TGI,[56],> 100 µM
same,TGI,[33],> 100 µM
same,TGI,[34],> 100 µM
same,TGI,[35],32.8 µM
same,TGI,[36],> 81.4 µM
same,TGI,[37],> 100 µM
same,TGI,[38],> 100 µM
same,TGI,[57],> 100 µM
same,TGI,[39],> 100 µM
same,TGI,[40],> 100 µM
same,TGI,[41],> 100 µM
same,TGI,[42],> 100 µM
same,TGI,[43],> 100 µM
same,TGI,[44],> 100 µM
same,TGI,[45],> 100 µM
same,TGI,[46],> 77.4 µM
same,TGI,[47],> 100 µM
same,TGI,[48],> 100 µM
same,TGI,[49],> 100 µM
same,TGI,[58],> 100 µM
same,TGI,[50],> 100 µM
same,TGI,[51],> 100 µM
same,TGI,[52],> 100 µM
same,TGI,[53],> 100 µM
same,TGI,[54],> 100 µM
Cc1ccc(/C(O)=C/c2nc3ccccc3nc2NC23CC4CC(CC(C4)C2)C3)cc1,TGI,[55],> 10 µM
same,TGI,[1],> 10 µM
same,TGI,[2],> 10 µM
same,TGI,[3],> 10 µM
same,TGI,[5],> 10 µM
same,TGI,[6],> 10 µM
same,TGI,[7],> 10 µM
same,TGI,[8],> 10 µM
same,TGI,[9],> 10 µM
same,TGI,[10],> 10 µM
same,TGI,[11],> 10 µM
same,TGI,[12],> 10 µM
same,TGI,[13],> 10 µM
same,TGI,[14],> 10 µM
same,TGI,[15],> 10 µM
same,TGI,[16],> 10 µM
same,TGI,[17],> 10 µM
same,TGI,[18],> 10 µM
same,TGI,[19],> 10 µM
same,TGI,[20],> 10 µM
same,TGI,[21],> 10 µM
same,TGI,[23],> 10 µM
same,TGI,[24],> 10 µM
same,TGI,[25],> 10 µM
same,TGI,[26],> 10 µM
same,TGI,[27],> 10 µM
same,TGI,[30],> 10 µM
same,TGI,[31],> 10 µM
same,TGI,[32],> 10 µM
same,TGI,[33],> 10 µM
same,TGI,[34],> 10 µM
same,TGI,[35],> 10 µM
same,TGI,[36],> 10 µM
same,TGI,[37],> 10 µM
same,TGI,[38],> 10 µM
same,TGI,[57],> 10 µM
same,TGI,[39],> 10 µM
same,TGI,[40],> 10 µM
same,TGI,[41],> 10 µM
same,TGI,[42],> 10 µM
same,TGI,[43],> 10 µM
same,TGI,[44],> 10 µM
same,TGI,[46],> 10 µM
same,TGI,[47],> 10 µM
same,TGI,[48],> 10 µM
same,TGI,[49],> 10 µM
same,TGI,[58],> 10 µM
same,TGI,[50],> 10 µM
same,TGI,[51],> 10 µM
same,TGI,[52],> 10 µM
same,TGI,[54],> 10 µM
